From paper PMC10599993, “The PTPN2/PTPN1 inhibitor ABBV-CLS-484 unleashes potent anti-tumour immunity” (Nature, 2023)

Legend:
PTPN2 = biological target: T1, PTPN2 (Homo sapiens, UniProt P17706); experiment: X-ray crystal structure (soak); mobility shift enzyme assay IC50; format: biochemical
T1 construct: Met1–Asn314, C-terminal 8× histidine tag (crystal); full-length recombinant (IC50)
From the text: X-ray crystal structure (soak); mobility shift enzyme assay IC50 on PTPN2 | The crystal structure of the PTPN2 protein with AC484 confirmed the formation of several crucial interactions in the active site

BTK = BTK (Homo sapiens, UniProt Q06187); experiment: biochemical; set-up: Kinase selectivity panel, IC50 of AC484 (Supplementary Table 1)
Procedure: (§1) Wide-range phosphatase, kinase and preclinical safety pharmacology off-target activity screens were conducted at Eurofins (Extended Data Table 5 and Supplementary Tables 1 and 2). A small phosphatase panel was developed at AbbVie to assess IC50 values on select phosphatases. The following enzymes used in the phosphatase selectivity panel were purchased from Eurofins: PTPN1 (PTP1B; 14–621), PTPN2 (TC-PTP; 14–646), PTPN9 (14–592), SHP1 (14–591) and SHP2 (14–622). The catalytic activity of the phosphatase was monitored using the small-molecule substrate DiFMUP (ThermoFisher) in a fluorescence assay format. In brief, the phosphatase reactions were performed at room temperature in the following assay buffer: 50 mM HEPES, pH 7.2, 100 mM NaCl, 1 mM EDTA, 0.005% Tween-20 and 5 mM TCEP. Each phosphatase was incubated with increasing concentrations of AC484 for 5 min, after which the substrate DiFMUP was added and incubated at 25 °C for 30 min. The final concentration of the enzyme and substrate was maintained at 0.5 nM and 5 μM, respectively, in all the assays. The reaction was then quenched by the addition of a 100 μM solution of bpV(Phen) (Enzo Life Sciences). The fluorescence signal was monitored using an Envision microplate reader (Perkin-Elmer) using excitation and emission wavelengths of 340 nm and 450 nm, respectively. The dose–response curves for the inhibitors were analysed using normalized IC50 regression curve fitting with control-based normalization. Supplementary file 41586_2023_6575_MOESM3_ESM.xlsx: Supplementary Table 1 AC484 kinase selectivity screen.

EGFR = EGFR (Homo sapiens, UniProt P00533); experiment: biochemical; set-up: Kinase selectivity panel, IC50 of AC484 (Supplementary Table 1)
Procedure: as §1

Flt1 = Flt1 (Homo sapiens, UniProt P17948); experiment: biochemical; set-up: Kinase selectivity panel, IC50 of AC484 (Supplementary Table 1)
Procedure: as §1

PKA = biological target: T2, PKA (Homo sapiens, UniProt P17612); experiment: biochemical; set-up: Kinase selectivity panel, IC50 of AC484 (Supplementary Table 1)
T2 construct: gene PRKACA
Procedure: as §1

PKAc beta = biological target: T3, PKAc beta (Homo sapiens, UniProt P22694); experiment: biochemical; set-up: Kinase selectivity panel, IC50 of AC484 (Supplementary Table 1)
T3 construct: gene PRKACB
Procedure: as §1

PKCdelta = biological target: T4, PKCdelta (Homo sapiens, UniProt Q05655); experiment: biochemical; set-up: Kinase selectivity panel, IC50 of AC484 (Supplementary Table 1)
T4 construct: gene PRKCD
Procedure: as §1

Prkcn = biological target: T5, Prkcn (Homo sapiens, UniProt O94806); experiment: biochemical; set-up: Kinase selectivity panel, IC50 of AC484 (Supplementary Table 1)
T5 construct: gene PRKD3
Procedure: as §1

SIK1 = SIK1 (Homo sapiens, UniProt P57059); experiment: biochemical; set-up: Kinase selectivity panel, IC50 of AC484 (Supplementary Table 1)
Procedure: as §1

STK33 = STK33 (Homo sapiens, UniProt Q9BYT3); experiment: biochemical; set-up: Kinase selectivity panel, IC50 of AC484 (Supplementary Table 1)
Procedure: as §1

BRAF = BRAF (Homo sapiens, UniProt P15056); experiment: biochemical; set-up: Kinase selectivity panel, IC50 of AC484 (Supplementary Table 1)
CAMK1D = CAMK1D (Homo sapiens, UniProt Q8IU85); experiment: biochemical; set-up: Kinase selectivity panel, IC50 of AC484 (Supplementary Table 1)
CAMK2A = CAMK2A (Homo sapiens, UniProt Q9UQM7); experiment: biochemical; set-up: Kinase selectivity panel, IC50 of AC484 (Supplementary Table 1)
CLK2 = CLK2 (Homo sapiens, UniProt P49760); experiment: biochemical; set-up: Kinase selectivity panel, IC50 of AC484 (Supplementary Table 1)
FGR = FGR (Homo sapiens, UniProt P09769); experiment: biochemical; set-up: Kinase selectivity panel, IC50 of AC484 (Supplementary Table 1)
Fyn = Fyn (Homo sapiens, UniProt P06241); experiment: biochemical; set-up: Kinase selectivity panel, IC50 of AC484 (Supplementary Table 1)
GRK5 = GRK5 (Homo sapiens, UniProt P34947); experiment: biochemical; set-up: Kinase selectivity panel, IC50 of AC484 (Supplementary Table 1)
JAK3 = JAK3 (Homo sapiens, UniProt P52333); experiment: biochemical; set-up: Kinase selectivity panel, IC50 of AC484 (Supplementary Table 1)
PKC alpha-UBI = biological target: T6, PKC alpha-UBI (Homo sapiens, UniProt P17252); experiment: biochemical; set-up: Kinase selectivity panel, IC50 of AC484 (Supplementary Table 1)
T6 construct: gene PRKCA

PKCzeta = biological target: T7, PKCzeta (Homo sapiens, UniProt Q05513); experiment: biochemical; set-up: Kinase selectivity panel, IC50 of AC484 (Supplementary Table 1)
T7 construct: gene PRKCZ

STK16 = STK16 (Homo sapiens, UniProt O75716); experiment: biochemical; set-up: Kinase selectivity panel, IC50 of AC484 (Supplementary Table 1)
TEC = TEC (Homo sapiens, UniProt P42680); experiment: biochemical; set-up: Kinase selectivity panel, IC50 of AC484 (Supplementary Table 1)
Sequence of TEC (P42680 whole entry): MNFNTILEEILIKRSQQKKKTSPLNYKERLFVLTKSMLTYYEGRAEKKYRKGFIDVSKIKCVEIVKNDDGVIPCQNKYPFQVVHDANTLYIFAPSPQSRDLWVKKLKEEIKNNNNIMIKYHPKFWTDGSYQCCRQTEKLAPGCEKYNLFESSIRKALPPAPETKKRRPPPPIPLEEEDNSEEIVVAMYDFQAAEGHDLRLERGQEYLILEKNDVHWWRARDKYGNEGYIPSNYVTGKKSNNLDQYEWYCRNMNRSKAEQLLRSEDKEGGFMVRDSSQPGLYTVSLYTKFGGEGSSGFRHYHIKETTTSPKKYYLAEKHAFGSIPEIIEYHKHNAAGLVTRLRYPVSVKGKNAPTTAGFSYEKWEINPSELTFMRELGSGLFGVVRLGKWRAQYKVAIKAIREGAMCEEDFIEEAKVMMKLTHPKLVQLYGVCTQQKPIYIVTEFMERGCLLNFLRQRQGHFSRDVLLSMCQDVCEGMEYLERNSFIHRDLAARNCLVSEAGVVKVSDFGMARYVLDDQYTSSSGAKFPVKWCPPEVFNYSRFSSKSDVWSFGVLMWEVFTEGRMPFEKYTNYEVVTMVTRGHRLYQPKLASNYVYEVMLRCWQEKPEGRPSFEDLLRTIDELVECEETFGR

Sequence of CAMK2A (Q9UQM7 whole entry): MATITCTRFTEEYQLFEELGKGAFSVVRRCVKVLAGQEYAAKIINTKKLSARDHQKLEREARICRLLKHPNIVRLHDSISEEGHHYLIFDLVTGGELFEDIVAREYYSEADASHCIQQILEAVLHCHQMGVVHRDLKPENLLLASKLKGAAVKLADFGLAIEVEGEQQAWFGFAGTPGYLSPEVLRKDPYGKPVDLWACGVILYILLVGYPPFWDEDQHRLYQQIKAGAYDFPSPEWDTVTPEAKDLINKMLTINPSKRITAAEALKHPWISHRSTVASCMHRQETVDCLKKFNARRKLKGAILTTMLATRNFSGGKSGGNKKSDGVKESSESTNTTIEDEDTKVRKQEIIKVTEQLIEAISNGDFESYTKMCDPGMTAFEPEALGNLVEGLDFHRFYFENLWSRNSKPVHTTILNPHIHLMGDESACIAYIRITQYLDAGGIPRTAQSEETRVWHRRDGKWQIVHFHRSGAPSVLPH
Sequence of BTK (Q06187 whole entry): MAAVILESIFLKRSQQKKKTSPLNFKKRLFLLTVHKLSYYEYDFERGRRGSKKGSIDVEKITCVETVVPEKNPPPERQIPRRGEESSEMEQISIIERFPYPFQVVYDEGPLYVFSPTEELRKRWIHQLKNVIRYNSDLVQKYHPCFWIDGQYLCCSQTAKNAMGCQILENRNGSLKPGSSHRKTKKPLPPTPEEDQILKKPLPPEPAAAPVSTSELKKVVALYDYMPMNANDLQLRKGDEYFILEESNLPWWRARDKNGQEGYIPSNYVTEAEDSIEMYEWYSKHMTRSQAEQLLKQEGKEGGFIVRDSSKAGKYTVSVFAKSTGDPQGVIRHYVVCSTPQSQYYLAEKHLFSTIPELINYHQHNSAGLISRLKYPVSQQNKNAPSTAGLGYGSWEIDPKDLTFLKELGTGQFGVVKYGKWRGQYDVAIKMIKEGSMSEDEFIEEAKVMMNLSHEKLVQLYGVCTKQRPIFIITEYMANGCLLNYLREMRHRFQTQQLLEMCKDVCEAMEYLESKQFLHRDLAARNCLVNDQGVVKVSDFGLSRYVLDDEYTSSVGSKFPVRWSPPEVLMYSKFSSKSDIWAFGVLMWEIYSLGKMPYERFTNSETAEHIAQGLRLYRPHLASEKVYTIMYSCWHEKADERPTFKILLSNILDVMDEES
Sequence of GRK5 (P34947 whole entry): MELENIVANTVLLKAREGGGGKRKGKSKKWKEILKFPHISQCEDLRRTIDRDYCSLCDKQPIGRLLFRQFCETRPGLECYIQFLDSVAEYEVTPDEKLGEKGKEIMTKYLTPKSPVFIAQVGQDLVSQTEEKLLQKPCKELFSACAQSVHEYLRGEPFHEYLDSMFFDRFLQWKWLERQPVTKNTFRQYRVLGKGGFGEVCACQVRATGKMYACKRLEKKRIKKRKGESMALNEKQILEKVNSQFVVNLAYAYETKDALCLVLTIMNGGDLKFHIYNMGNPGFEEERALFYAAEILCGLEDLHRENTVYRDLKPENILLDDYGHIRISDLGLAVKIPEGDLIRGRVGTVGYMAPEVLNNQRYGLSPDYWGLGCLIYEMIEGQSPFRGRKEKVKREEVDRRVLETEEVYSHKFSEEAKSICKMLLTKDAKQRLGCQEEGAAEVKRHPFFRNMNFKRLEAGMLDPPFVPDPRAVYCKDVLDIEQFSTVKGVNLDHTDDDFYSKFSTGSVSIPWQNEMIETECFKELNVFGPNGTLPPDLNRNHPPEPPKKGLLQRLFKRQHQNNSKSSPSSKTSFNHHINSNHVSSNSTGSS
Sequence of SIK1 (P57059 whole entry): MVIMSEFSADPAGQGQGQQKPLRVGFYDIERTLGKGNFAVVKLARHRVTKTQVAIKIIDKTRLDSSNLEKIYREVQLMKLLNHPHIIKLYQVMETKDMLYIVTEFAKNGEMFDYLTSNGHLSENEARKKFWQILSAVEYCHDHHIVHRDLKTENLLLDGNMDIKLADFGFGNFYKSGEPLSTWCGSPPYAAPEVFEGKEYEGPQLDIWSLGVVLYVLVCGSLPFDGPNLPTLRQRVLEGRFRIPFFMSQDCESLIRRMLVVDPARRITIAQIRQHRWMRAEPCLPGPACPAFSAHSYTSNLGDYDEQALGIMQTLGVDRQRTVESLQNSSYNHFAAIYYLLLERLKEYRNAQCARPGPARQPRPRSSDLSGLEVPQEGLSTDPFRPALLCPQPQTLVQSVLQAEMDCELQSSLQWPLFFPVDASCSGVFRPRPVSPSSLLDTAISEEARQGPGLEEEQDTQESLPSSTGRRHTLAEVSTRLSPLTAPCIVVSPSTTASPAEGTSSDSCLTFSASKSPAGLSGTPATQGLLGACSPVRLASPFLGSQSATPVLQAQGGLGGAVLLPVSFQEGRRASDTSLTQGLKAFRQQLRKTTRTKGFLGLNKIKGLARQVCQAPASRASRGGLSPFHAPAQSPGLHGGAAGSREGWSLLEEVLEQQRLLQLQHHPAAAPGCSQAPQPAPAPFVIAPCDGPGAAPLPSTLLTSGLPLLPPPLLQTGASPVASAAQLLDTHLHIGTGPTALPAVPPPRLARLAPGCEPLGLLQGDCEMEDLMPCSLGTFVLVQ
T5 sequence (O94806 whole entry): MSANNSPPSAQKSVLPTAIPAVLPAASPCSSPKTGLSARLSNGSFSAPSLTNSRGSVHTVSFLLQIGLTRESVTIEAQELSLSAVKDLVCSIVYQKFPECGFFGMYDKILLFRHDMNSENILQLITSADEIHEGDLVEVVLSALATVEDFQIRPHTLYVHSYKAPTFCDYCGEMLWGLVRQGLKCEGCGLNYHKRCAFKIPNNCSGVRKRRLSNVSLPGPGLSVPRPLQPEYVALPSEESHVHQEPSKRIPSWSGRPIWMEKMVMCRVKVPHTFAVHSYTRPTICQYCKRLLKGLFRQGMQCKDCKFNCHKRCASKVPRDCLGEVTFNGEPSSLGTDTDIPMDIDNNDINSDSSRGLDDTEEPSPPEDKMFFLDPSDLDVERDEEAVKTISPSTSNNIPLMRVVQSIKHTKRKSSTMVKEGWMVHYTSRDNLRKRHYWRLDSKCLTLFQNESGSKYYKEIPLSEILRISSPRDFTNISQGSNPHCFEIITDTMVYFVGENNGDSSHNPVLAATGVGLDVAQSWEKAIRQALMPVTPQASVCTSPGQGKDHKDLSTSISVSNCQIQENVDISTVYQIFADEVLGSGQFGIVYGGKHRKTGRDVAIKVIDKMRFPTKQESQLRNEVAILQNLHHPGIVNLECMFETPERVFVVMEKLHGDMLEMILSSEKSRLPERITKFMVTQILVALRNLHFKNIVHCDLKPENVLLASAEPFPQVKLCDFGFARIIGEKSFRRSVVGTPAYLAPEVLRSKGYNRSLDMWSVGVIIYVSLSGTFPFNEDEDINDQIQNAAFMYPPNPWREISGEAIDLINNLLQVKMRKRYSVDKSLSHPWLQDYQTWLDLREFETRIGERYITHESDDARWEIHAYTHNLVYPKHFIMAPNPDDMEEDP
Sequence of STK16 (O75716 whole entry): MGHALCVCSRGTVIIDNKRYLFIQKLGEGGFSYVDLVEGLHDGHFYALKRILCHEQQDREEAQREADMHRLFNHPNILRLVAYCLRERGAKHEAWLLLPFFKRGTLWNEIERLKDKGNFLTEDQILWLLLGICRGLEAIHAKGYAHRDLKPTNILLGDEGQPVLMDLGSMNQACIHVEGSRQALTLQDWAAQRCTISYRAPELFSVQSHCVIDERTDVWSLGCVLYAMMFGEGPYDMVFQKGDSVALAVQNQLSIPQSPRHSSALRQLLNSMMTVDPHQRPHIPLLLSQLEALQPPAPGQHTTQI

CC(C)CCN[C@@H]1CCc2cc(O)c(N3CC(=O)NS3(=O)=O)c(F)c2C1 [AC484, ABBV-CLS-484]
IC50 (PTPN2): 0.0018 µM | IC50 (BTK): > 10 µM | IC50 (EGFR): > 10 µM | IC50 (Flt1): > 10 µM | IC50 (PKA): > 10 µM | IC50 (PKAc beta): > 10 µM | IC50 (PKCdelta): > 10 µM | IC50 (Prkcn): > 10 µM | IC50 (SIK1): > 10 µM | IC50 (STK33): > 10 µM | IC50 (BRAF): > 10 µM | IC50 (CAMK1D): > 10 µM | IC50 (CAMK2A): > 10 µM | IC50 (CLK2): > 10 µM | IC50 (FGR): > 10 µM | IC50 (Fyn): > 10 µM | IC50 (GRK5): > 10 µM | IC50 (JAK3): > 10 µM | IC50 (PKC alpha-UBI): > 10 µM | IC50 (PKCzeta): > 10 µM | IC50 (STK16): > 10 µM | IC50 (TEC): > 10 µM
